{"source": "patent US6541500B1", "about": "“Fungicide mixture” (BASF Aktiengesellschaft, priority 1998, dated 2003)", "test_system": "mildew of wheat (Erysiphe graminis forma specialis tritici)", "test": "Action against mildew of wheat (wheat seedlings cv. Kanzler, protective spray)", "format": "in vivo", "settings": "single active ingredient, wheat leaves, 7 days after inoculation", "procedure": "The active compounds, separately or together, are formulated as a 10% strength emulsion in a mixture of 70% by weight of cyclohexanone, 20% by weight of Nekanil® LN (Lutensol® AP6, wetting agent having emulsifying and dispersing action based on ethoxylated alkylphenols) and 10% by weight of Emulphor® EL (Emulan® EL, emulsifier based on ethoxylated fatty alcohols) and diluted with water to the desired concentration.\nEvaluation is carried out by determining the infected leaf areas in percent. These percentages are converted into efficacies. The expected efficacies of the mixtures of the active compounds are determined using Colby's formula [R. S. Colby, Weeds 15, 20-22 (1967)] and compared with the observed efficacies.\nAt an efficacy of 0, the infection level of the treated plants corresponds to that of the untreated control plants; at an efficacy of 100, the treated plants are not infected.\nLeaves of wheat seedlings of the cultivar “Kanzler”, grown in pots, were sprayed to run-off point with an aqueous formulation of active ingredient which had been prepared using a stock solution comprising 10% of active ingredient, 63% of cyclohexanone and 27% of emulsifier, and 24 h after the spraycoating had dried on the leaves were dusted with spores of mildew of wheat (Erysiphe graminis forma specialis tritici). The test plants were subsequently placed in climatized chambers at 20-24° C. and 60-90% relative atmospheric humidity for 7 days. The extent of the development of the disease on the leaves was then evaluated visually.\nThe visually determined values for the percentage of diseased leaf area were converted into efficacies in % of the untreated control. An efficacy of 0 means the same disease level as in the untreated control, an efficacy of 100 means a disease level of 0%. The expected efficacies for the active ingredient combinations were determined using Colby's formula (Colby, S. R. “Calculating synergistic and antagonistic responses of herbicide combinations”, Weeds, 15, pp. 20-22, 1967) and compared with the observed efficacies. […]", "data": [{"smiles": "Fc1ccc(Oc2ccnc3cc(Cl)cc(Cl)c23)cc1", "note": "[I.78, quinoxyfen]", "values": [{"measurement": "Efficacy in % of the untreated control", "setting": "conc. 0.06 ppm", "result": 0, "unit": "%"}, {"measurement": "Efficacy in % of the untreated control", "setting": "conc. 0.25 ppm", "result": 0, "unit": "%"}, {"measurement": "Efficacy in % of the untreated control", "setting": "conc. 1 ppm", "result": 33, "unit": "%"}]}]}
